From US20220227737A1, “NOVEL OXALYL PIPERAZINES ACTIVE AGAINST THE HEPATITIS B VIRUS (HBV)” (AiCuris GmbH & Co. KG, priority 2019, published 2022)
pEC50, pIC50: −log10 of the molar value.

Assays:
[1] = test system: HBV; assay: HBV replication assay: HBV DNA from the supernatants of HepAD38 cells; assay type: cell-based; conditions: Hepatitis B virus, 144 h, HBV DNA in supernatant at day 6, read-out: Cell Activity
Description: Determination of HBV DNA from the Supernatants of HepAD38 Cells
The anti-HBV activity was analysed in the stable transfected cell line HepAD38, which has been described to secrete high levels of HBV virion particles (Ladner et al., 1997). In brief, HepAD38 cells were cultured at 37° C. at 5% CO2 and 95% humidity in 200 μl maintenance medium, which was Dulbecco's modified Eagle's medium/Nutrient Mixture F-12 (Gibco, Karlsruhe), 10% fetal bovine serum (PAN Biotech Aidenbach) supplemented with 50 μg/ml penicillin/streptomycin (Gibco, Karlsruhe), 2 mM L-glutamine (PAN Biotech, Aidenbach), 400 μg/ml G418 (AppliChem, Darmstadt) and 0.3 μg/ml tetracycline. Cells were subcultured once a week in a 1:5 ratio, but were usually not passaged more than ten times. For the assay 60,000 cells were seeded in maintenance medium without any tetracycline into each well of a 96-well plate and treated with serial half-log dilutions of test compound. To minimize edge effects the outer 36 wells of the plate were not used but were filled with assay medium. On each assay plate six wells for the virus control (untreated HepAD38 cells) and six wells for the cell control (HepAD38 cells treated with 0.3 μg/ml tetracycline) were allocated, respectively. In addition, one plate set with reference inhibitors like BAY 41-4109, entecavir, and lamivudine instead of screening compounds were prepared in each experiment. In general, experiments were performed thrice in triplicates. At day 6 HBV DNA from 100 μl filtrated cell culture supernatant (AcroPrep Advance 96 Filter Plate, […] Supor membran, PALL GmbH, Dreieich) was automatically purified on the MagNa Pure LC instrument using the MagNA Pure 96 DNA and Viral NA Small Volume Kit (Roche Diagnostics, Mannheim) according to the instructions of the manufacturer. EC50 values were calculated from relative copy numbers of HBV DNA In brief, 5 μl of the 100 μl eluate containing HBV DNA were subjected to PCR LC480 Probes Master Kit (Roche) together with 1 μM antisense primer […], 0.5 μM sense primer […], 0.3 μM hybprobes […]-FL and LC640-[…]-PH (TIBMolBiol, Berlin) to a final volume of […]. The PCR was performed on the Light Cycler 480 real time system (Roche Diagnostics, Mannheim) using the following protocol: Pre-incubation for 1 min at 95° C., amplification: 40 cycles×(10 sec at 95° C., 50 sec at 60° C., 1 sec at 70° C.), cooling for 10 sec at 40° C. Viral load was quantitated against known standards using HBV plasmid DNA of pCH-9/3091 (Nassal et al., 1990, Cell 63: 1357-1363) and the LightCycler 480 SW 1.5 software (Roche Diagnostics, Mannheim) and EC50 values were calculated using non-linear regression with GraphPad Prism 6 (GraphPad Software Inc., La Jolla, USA).

[2] = Cell viability assay (AlamarBlue); conditions: human, HepAD38 cells
[3] = target: T1, C-terminal truncated core protein (HBV core dimer, BODIPY-FL labelled) (UniProt P03146); assay: Biochemical capsid assembly assay (fluorescence quenching)
T1 construct: fused on or other part: One added cysteine at position 150, labelled with BODIPY-FL maleimide; The C-terminal arginine-rich domain is absent
How it was run: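 E. coli-expressed HBV core 1–149 plus Cys150 dimer, BODIPY-FL-labelled, at 1.0–2.0 μM in 50 mM HEPES pH 7.5, 0.5% DMSO. 8-point compound series; assembly started with NaCl, fluorescence quenching (ex 477/em 525 nm) read after 6 min. EC50 by non-linear regression versus 2.5 M and 0 M NaCl controls.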

T1 sequence (P03146 whole entry, the tested form may be a part): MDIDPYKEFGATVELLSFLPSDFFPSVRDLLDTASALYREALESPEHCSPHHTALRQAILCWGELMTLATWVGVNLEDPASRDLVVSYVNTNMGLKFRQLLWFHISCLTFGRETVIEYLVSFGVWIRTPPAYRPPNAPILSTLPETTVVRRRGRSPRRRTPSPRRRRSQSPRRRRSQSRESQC

CCC(CCO)CNC(=O)C(=O)N1CCN(C(=O)c2cc3c(F)cc(F)cc3[nH]2)CC1 (stereo not drawn) [Example 59, 2-(4-(4,6-difluoro-1H-indole-2-carbonyl)piperazin-1-yl)-N-(2-ethyl-4-hydroxybutyl)-2-oxoacetamide]
pEC50 [1]: > 6.00 | CC50 at 6 days [2]: > 100 µM | pIC50 [3]: > 5.30

CC(O)CCCNC(=O)C(=O)N1CCN(C(=O)c2cc3c(F)cc(F)cc3[nH]2)CC1 (stereo not drawn) [Example 60, 2-(4-(4,6-difluoro-1H-indole-2-carbonyl)piperazin-1-yl)-N-(4-hydroxypentyl)-2-oxoacetamide]
pEC50 [1]: > 6.00 | CC50 at 6 days [2]: > 100 µM | pIC50 [3]: > 5.30

CC(C)(CCO)CNC(=O)C(=O)N1CCN(C(=O)c2cc3c(F)cc(F)cc3[nH]2)CC1 [Example 61, 2-(4-(4,6-difluoro-1H-indole-2-carbonyl)piperazin-1-yl)-N-(4-hydroxy-2,2-dimethylbutyl)-2-oxoacetamide]
pEC50 [1]: > 6.00 | CC50 at 6 days [2]: > 100 µM | pIC50 [3]: > 5.30

O=C(NCCCCO)C(=O)N1CCN(C(=O)c2cc3c(F)cc(F)cc3[nH]2)CC1 [Example 62, 2-(4-(4,6-difluoro-1H-indole-2-carbonyl)piperazin-1-yl)-N-(4-hydroxybutyl)-2-oxoacetamide]
pEC50 [1]: > 6.00 | CC50 at 6 days [2]: > 100 µM | pIC50 [3]: > 5.30

COC(C)CNC(=O)C(=O)N1CCN(C(=O)c2cc3c(F)cc(F)cc3[nH]2)CC1 (stereo not drawn) [Example 63, 2-(4-(4,6-difluoro-1H-indole-2-carbonyl)piperazin-1-yl)-N-(2-methoxypropyl)-2-oxoacetamide]
pEC50 [1]: > 6.00 | CC50 at 6 days [2]: > 100 µM | pIC50 [3]: > 5.30

C[C@@H](O)CNC(=O)C(=O)N1CCN(C(=O)c2cc3c(F)cc(F)cc3[nH]2)CC1 [Example 64, (R)-2-(4-(4,6-difluoro-1H-indole-2-carbonyl)piperazin-1-yl)-N-(2-hydroxypropyl)-2-oxoacetamide]
pEC50 [1]: > 6.00 | CC50 at 6 days [2]: > 100 µM | pIC50 [3]: > 5.30

COC1(CNC(=O)C(=O)N2CCN(C(=O)c3cc4c(F)cc(F)cc4[nH]3)CC2)CC1 [Example 65, 2-(4-(4,6-difluoro-1H-indole-2-carbonyl)piperazin-1-yl)-N-((1-methoxycyclopropyl)methyl)-2-oxoacetamide]
pEC50 [1]: > 6.00 | CC50 at 6 days [2]: > 100 µM | pIC50 [3]: > 5.30
